# PubChem BioAssay (NCI)
#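 Tested at 5 concentrations; 48 h exposure; 96-well plates; endpoints linearly interpolated, else capped at highest concentration. Here, GI50 denotes the concentration required for 50% inhibition of growth. TGI is the concentration that stops growth completely.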
# Columns and labels:
# Test in all cases: NCI anticancer screen, dose series, 48 h
# M14 melanoma = system: M14 melanoma
# SK-MEL-5 melanoma = system: SK-MEL-5 melanoma
# NCI-H522 lung = system: NCI-H522 lung
# HT29 colon = system: HT29 colon
# 786-0 renal = system: 786-0 renal
# SNB-19 CNS = system: SNB-19 CNS
# SR leukemia = system: SR leukemia
# HL-60(TB) leukemia = system: HL-60(TB) leukemia
# MDA-N = system: MDA-N
# SK-MEL-2 melanoma = system: SK-MEL-2 melanoma
# CCRF-CEM leukemia = system: CCRF-CEM leukemia
SMILES,TGI (M14 melanoma),TGI (SK-MEL-5 melanoma),TGI (NCI-H522 lung),TGI (HT29 colon),TGI (786-0 renal),TGI (SNB-19 CNS),TGI (SR leukemia),TGI (HL-60(TB) leukemia),TGI (MDA-N),TGI (SK-MEL-2 melanoma),TGI (CCRF-CEM leukemia),GI50 (M14 melanoma),GI50 (HT29 colon),GI50 (SR leukemia),GI50 (CCRF-CEM leukemia),GI50 (SK-MEL-5 melanoma),GI50 (NCI-H522 lung),GI50 (SNB-19 CNS),GI50 (HL-60(TB) leukemia),GI50 (SK-MEL-2 melanoma)
CCN(CC)c1nc(N(C)C)c2ccccc2n1,72.1 µM,35 µM,96.9 µM,> 100 µM,> 100 µM,> 100 µM,27.5 µM,> 100 µM,59.9 µM,> 100 µM,–,–,–,–,–,–,–,–,–,–
CC(C)C(=O)Oc1cc2c(=O)oc3c(OC(=O)C(C)C)c(OC(=O)C(C)C)cc4c(=O)oc(c1OC(=O)C(C)C)c2c34,> 100 µM,> 100 µM,> 100 µM,> 100 µM,> 100 µM,> 100 µM,–,–,> 100 µM,–,> 100 µM,–,–,–,–,–,–,–,–,–
C=C1C(=O)O[C@H]2[C@H]3O[C@@H](C[C@@H]12)[C@](C)(O)CC[C@@H]1O[C@@]1(C)CCC[C@H]3C,29.3 µM,33.5 µM,34.6 µM,68.6 µM,33.9 µM,> 100 µM,> 100 µM,> 100 µM,–,43.6 µM,58.2 µM,–,–,–,–,–,–,–,–,–
CC(=O)Nc1cc(Nc2cc(=O)[nH]c(=O)[nH]2)ccc1C,> 100 µM,> 100 µM,–,–,> 100 µM,> 100 µM,> 100 µM,> 100 µM,> 100 µM,–,> 100 µM,–,–,–,–,–,–,–,–,–
C=CC1CN2CCC1CC2C(O)c1ccnc2ccccc12 (centres undefined),> 100 µM,> 100 µM,–,> 100 µM,> 100 µM,> 100 µM,> 100 µM,> 100 µM,–,> 100 µM,> 100 µM,> 100 µM,> 100 µM,> 100 µM,> 100 µM,–,–,–,–,–
CC(=O)OC1CC2C(=O)C(=O)C1(C)C2(C)C (centres undefined),> 100 µM,> 100 µM,–,> 100 µM,> 100 µM,> 100 µM,> 100 µM,–,> 100 µM,–,> 100 µM,–,–,–,–,–,–,–,–,–
CC(C)OC1OC(CO)C(O)CC1n1cc(F)c(=O)[nH]c1=O (centres undefined),> 100 µM,> 100 µM,37.8 µM,> 100 µM,> 100 µM,> 100 µM,–,–,> 100 µM,> 100 µM,–,–,–,–,–,–,–,–,–,–
CO[C@]1(CN2CCN3CCCC[C@@H]3C2)/C=C/C[C@H](C)[C@@H](C)S(=O)(=O)NC(=O)c2ccc3c(c2)N(C[C@@H]2CC[C@H]21)C[C@@]1(CCCc2cc(Cl)ccc21)CO3,–,3.11 µM,1.93 µM,–,–,4.62 µM,–,0.153 µM,–,0.183 µM,13.3 µM,–,–,–,1.44 µM,1.71 µM,0.37 µM,2.02 µM,0.0297 µM,0.0454 µM
S=C(NCc1ccccc1)N/N=C/c1ccccn1,9.32 µM,> 93.6 µM,24.5 µM,> 100 µM,> 65.3 µM,> 100 µM,> 21 µM,0.183 µM,> 100 µM,> 100 µM,–,–,–,–,–,–,–,–,–,–
O=[N+]([O-])c1cccnc1-n1cnc2ccccc21,> 100 µM,> 100 µM,–,> 100 µM,> 100 µM,–,> 100 µM,> 100 µM,–,> 100 µM,> 100 µM,–,–,–,–,–,–,–,–,–
CC(=O)CC(=O)CCC(=O)O,> 100 µM,–,> 100 µM,> 100 µM,–,> 100 µM,> 100 µM,> 100 µM,–,> 100 µM,–,–,–,–,–,–,–,–,–,–
O=[N+]([O-])c1ccc(C(Nc2ccccc2)c2ccc3cccnc3c2O)cc1 (centres undefined),> 74.4 µM,22.3 µM,28.6 µM,> 100 µM,26.1 µM,> 100 µM,–,13.4 µM,> 100 µM,> 100 µM,> 22.2 µM,–,–,–,–,–,–,–,–,–
Cc1ccccc1OC(C)C(=O)NN1C(=O)CC(=O)N(c2ccccc2)C1=S (centres undefined),> 100 µM,> 100 µM,> 100 µM,> 100 µM,> 100 µM,> 100 µM,–,61.2 µM,–,> 100 µM,–,–,–,–,–,–,–,–,–,–
NC(=O)Cc1nc2c(=O)[nH]cnc2n1C1OC(CO)C(O)C1O (centres undefined),> 100 µM,> 100 µM,> 100 µM,> 100 µM,> 100 µM,> 100 µM,–,> 100 µM,> 100 µM,> 100 µM,> 100 µM,–,–,–,–,–,–,–,–,–
CSc1nc(NC(C)C)c2c(n1)Sc1nc3ccccc3n1C2O (centres undefined),> 100 µM,–,24.7 µM,> 100 µM,> 100 µM,–,> 100 µM,–,11.9 µM,52 µM,4.95 µM,–,–,–,–,–,–,–,–,–
C#CCC1(C(=O)OCC)C(=O)c2ccccc2N(C)C1=O (centres undefined),> 100 µM,> 100 µM,27.3 µM,> 100 µM,–,> 100 µM,–,> 100 µM,–,> 100 µM,> 100 µM,–,–,–,–,–,–,–,–,–
CCC(CC(C)C)Nc1ccc(NC(CC)CC(C)C)cc1 (centres undefined),34.7 µM,28.2 µM,15.1 µM,30.5 µM,–,29.4 µM,39.7 µM,30.2 µM,–,27.4 µM,27.8 µM,16.8 µM,15.1 µM,15.1 µM,6.6 µM,15 µM,3.82 µM,15.9 µM,10.6 µM,12.9 µM
